“And” between values parts separate entries of the source, which are not always exact repeats. Equal entries are not always repeated.
Legend:
[1] = (§1) Cytotoxicity against human MRC5 cells assessed as inhibition of cell proliferation incubated for 72 hrs by alamar blue assay; format: toxicity, cell-based; details: human, MRC5 cells
[2] = test system: HeLa; assay: Cytotoxicity against human HeLa cells assessed as inhibition of cell proliferation incubated for 72 hrs by alamar blue assay; format: functional, cell-based
[3] = test system: Trypanosoma brucei; assay: Antitrypanosomal activity against Trypanosoma brucei bloodstream form assessed as inhibition of parasite growth incubated for 72 hrs by alamar blue assay; format: functional, organism-based
[4] = test system: Leishmania major; assay: Antileishmanial activity against Leishmania major (MHOM/IL/80/Friedlin) promastigotes assessed as inhibition of parasite growth incubated for 72 hrs by MTT assay; format: functional, organism-based
[5] = Selectivity index, ratio of IC50 for cytotoxicity against human MRC5 cells to IC50 for cytotoxicity against human HeLa cells; format: toxicity, cell-based; details: for selectivity ratio: MRC5 cells versus HeLa cells, read-out: Ratio IC50
[6] = Selectivity index, ratio of IC50 for cytotoxicity against human MRC5 cells to IC50 for antitrypanosomal activity against Trypanosoma brucei bloodstream form; format: toxicity, cell-based; details: for selectivity ratio: MRC5 cells versus Trypanosoma brucei bloodstream form, read-out: Ratio IC50
[7] = Selectivity index, ratio of IC50 for cytotoxicity against human MRC5 cells to IC50 for antileishmanial activity against Leishmania major (MHOM/IL/80/Friedlin) promastigotes; format: toxicity, cell-based; details: read-out: Ratio IC50
[8] = test system: Quadruplex DNA; assay: Binding affinity to G-quadruplex telomeric DNA F21T (5'-duplex GGG TTAGGG TTAGGG TTAGGG-3') (unknown origin) assessed as stabilization by measuring change in melting temperature at 10 uM in potassium buffer by FRET melting assay; format: nucleic-acid assay
[9] = test system: Quadruplex DNA; assay: Binding affinity to G-quadruplex telomeric DNA F21T (5'-duplex GGG TTAGGG TTAGGG TTAGGG-3') (unknown origin) assessed as stabilization by measuring change in melting temperature at 10 uM in sodium buffer by FRET melting assay; format: nucleic-acid assay
[10] = test system: Quadruplex DNA; assay: Binding affinity to G-quadruplex telomeric DNA FMycT (5'-duplex GGG TTAGGG TTAGGG TTAGGG-3') (unknown origin) assessed as stabilization by measuring change in melting temperature at 10 uM in potassium buffer by FRET melting assay; format: nucleic-acid assay
[11] = test system: Quadruplex DNA; assay: Binding affinity to Trypanosoma brucei G-quadruplex telomeric DNA FEBR1T (5'-duplex GGG TTAGGG TTAGGG TTAGGG-3') assessed as stabilization by measuring change in melting temperature at 10 uM in potassium buffer by FRET melting assay; format: nucleic-acid assay
[12] = Binding affinity to hairpin duplex DNA F10T (unknown origin) assessed as stabilization by measuring change in melting temperature at 10 uM in potassium buffer by FRET melting assay
[13] = test system: Quadruplex DNA; assay: Binding affinity to G-quadruplex telomeric DNA F21T (5'-duplex GGG TTAGGG TTAGGG TTAGGG-3') (unknown origin) assessed as stabilization by measuring change in melting temperature at 1 uM in potassium buffer by FRET melting assay; format: nucleic-acid assay
[14] = test system: Quadruplex DNA; assay: Binding affinity to G-quadruplex telomeric DNA F21T (5'-duplex GGG TTAGGG TTAGGG TTAGGG-3') (unknown origin) assessed as stabilization by measuring change in melting temperature at 1 uM in sodium buffer by FRET melting assay; format: nucleic-acid assay
[15] = test system: Quadruplex DNA; assay: Binding affinity to G-quadruplex telomeric DNA FMycT (5'-duplex GGG TTAGGG TTAGGG TTAGGG-3') (unknown origin) assessed as stabilization by measuring change in melting temperature at 1 uM in potassium buffer by FRET melting assay; format: nucleic-acid assay
[16] = test system: Quadruplex DNA; assay: Binding affinity to Trypanosoma brucei G-quadruplex telomeric DNA FEBR1T (5'-duplex GGG TTAGGG TTAGGG TTAGGG-3') assessed as stabilization by measuring change in melting temperature at 1 uM in potassium buffer by FRET melting assay; format: nucleic-acid assay
[17] = Binding affinity to hairpin duplex DNA F10T (unknown origin) assessed as stabilization by measuring change in melting temperature at 1 uM in potassium buffer by FRET melting assay
[18] = test system: MRC5; assay: as §1; format: toxicity, cell-based; details: mrc5
[19] = Leishmania major, MHOM/IL/80/Friedlin, 72 h

SMILES | IC50 at 72 h [1] [µM] | IC50 ([2]; Homo sapiens, HeLa, 72 h) [µM] | IC50 ([3]; Trypanosoma brucei, 72 h) [µM] | IC50 [4, 19] [µM] | selectivity ratio [5] | selectivity ratio [6] | selectivity ratio [7] | ΔTm [8] | ΔTm [9] | ΔTm [10] | ΔTm [11] [°C] | ΔTm [12] | other results
C[n+]1cccc2c(N3C(=O)c4ccc5c6c(ccc(c46)C3=O)C(=O)N(c3cccc4c3ccc[n+]4C)C5=O)cccc21 | 0.28 | 24.2 | 0.35 | 1.86 | 0.011 | 0.79 | 0.15 | 2 °C | 1.4 °C | 0.6 °C | 3 | 0.5 °C | –
CN1CCN(c2cccc(N3C(=O)c4ccc5c6c(ccc(c46)C3=O)C(=O)N(c3cccc(N4CCN(C)CC4)c3)C5=O)c2)CC1 | 1.48 | 0.47 | 0.18 | 0.33 | 3.09 | 7.91 | 4.41 | 6.4 °C | 5.8 °C | 8 °C | 4.6 | 0.1 °C | –
CN1CCN(CC2(CN3C(=O)c4ccc5c6c(ccc(c46)C3=O)C(=O)N(CC3(CN4CCN(C)CC4)CC3)C5=O)CC2)CC1 | 1.51 | 1.77 | 0.42 | 12.7 | 0.85 | 3.6 | 0.12 | 18.5 °C | 7.7 °C | 15 °C | 15.5 | 0.5 °C | –
C[n+]1cc(N2C(=O)c3ccc4c5c(ccc(c35)C2=O)C(=O)N(c2cc3ccccc3[n+](C)c2)C4=O)cc2ccccc21 | 3.41 | 64.8 | 19.7 | 52.1 | 0.053 | 0.17 | 0.065 | 0.3 °C | 0.4 °C | 1.2 °C | -0.9 | 0.1 °C | –
C[n+]1ccc(-c2c3nc(c(-c4cc[n+](C)cc4)c4ccc([nH]4)c(-c4cc[n+](C)cc4)c4ccc([nH]4)c(-c4cc[n+](C)cc4)c4nc2C=C4)C=C3)cc1 | – | – | – | – | – | – | – | – | – | – | – | – | ΔTm [13]: 28.1 °C; ΔTm [14]: 34.2 °C; ΔTm [15]: 27.5 °C; ΔTm [16]: 28 °C; ΔTm [17]: 7.2 °C
CC(CCN1C(=O)c2ccc3c4c(ccc(c24)C1=O)C(=O)N(CCC(C)N1CCN(C)CC1)C3=O)N1CCN(C)CC1 (stereo unspecified) | 1.24 | 0.35 | 0.13 | 0.24 | 3.54 | 9.5 | 5.17 | 28.5 °C | 18.8 °C | 22 °C | 24.8 | 4.5 °C | –
CN1CCN(CCCN2C(=O)c3ccc4c5c(ccc(c35)C2=O)C(=O)N(CCCN2CCN(C)CC2)C4=O)CC1 | 3.9 | 0.41 | 0.61 | 0.47 | – | – | – | 20 °C | 2 °C | 13 °C | 11 | 3 °C | –
C[n+]1cccc2cc(N3C(=O)c4ccc5c6c(ccc(c46)C3=O)C(=O)N(c3ccc4c(ccc[n+]4C)c3)C5=O)ccc21 | 1.15 | 37 | 3.71 | 16.8 | 0.031 | 0.3 | 0.068 | 4.6 °C | 3.5 °C | 11 °C | 2.5 | 1.4 °C | –
CN1CCN(C(C)(C)CN2C(=O)c3ccc4c5c(ccc(c35)C2=O)C(=O)N(CC(C)(C)N2CCN(C)CC2)C4=O)CC1 | 3.38 | 4.47 | 0.96 | 24.6 | 0.76 | 3.5 | 0.14 | 20.7 °C | 10.2 °C | 14.8 °C | 4 | 0.2 °C | –
O=C1c2ccc3c4c(ccc(c24)C(=O)N1CCCN1CCOCC1)C(=O)N(CCCN1CCOCC1)C3=O | 11.9 | 5.83 | 0.57 | 4.32 | 3.81 | 20.8 | 2.75 | 7 °C | -7 °C | 2 °C | 3.1 | 1 °C | –
CN1CCN(c2ccccc2N2C(=O)c3ccc4c5c(ccc(c35)C2=O)C(=O)N(c2ccccc2N2CCN(C)CC2)C4=O)CC1 | 1.5 | 1.21 | – | – | 1.23 | – | – | 1.6 °C and 1.9 °C | 1.4 °C and 1.9 °C | 0.9 °C and 2.3 °C | – | 0.1 °C and -0.3 °C | IC50 [18]: 1.23 µM; IC50 ([2]; hela): 0.74 µM; IC50 [3]: 0.048 µM and 0.11 µM; IC50 [4]: 0.79 µM and 3.11 µM; Ratio IC50 [5]: 1.66; Ratio IC50 [6]: 30.69 and 10.53
C[n+]1ccc(N2C(=O)c3ccc4c5c(ccc(c35)C2=O)C(=O)N(c2cc[n+](C)cc2)C4=O)cc1 | > 63.9 | > 63.9 | 48.7 | > 63.9 | – | > 1.31 | – | -0.4 °C | 0 °C | -3.5 °C | -0.5 | -0.2 °C | –
O=C1c2ccc3c4c(ccc(c24)C(=O)N1CC(c1ccccn1)N1CCOCC1)C(=O)N(CC(c1ccccn1)N1CCOCC1)C3=O (stereo unspecified) | 83.1 | 96.9 | 51.7 | > 100 | 0.85 | 1.6 | < 0.83 | 0.1 °C | 0.9 °C | 0.1 °C | 0.7 | 0.3 °C | –
O=C1c2ccc3c4c(ccc(c24)C(=O)N1c1ccccc1N1CCOCC1)C(=O)N(c1ccccc1N1CCOCC1)C3=O | 7.25 | 3.09 | 0.17 | 9.04 | 2.34 | 41.9 | 0.8 | – | – | – | – | – | –
CN1CCN(CCN2C(=O)c3ccc4c5c(ccc(c35)C2=O)C(=O)N(CCN2CCN(C)CC2)C4=O)CC1 | 6.78 | 1.06 | 0.48 | 1.68 | 6.4 | 14.2 | 4.04 | 21.5 °C | 11.3 °C | 16 °C | 12 | 2.7 °C | –
CC(CN1C(=O)c2ccc3c4c(ccc(c24)C1=O)C(=O)N(CC(C)N1CCN(C)CC1)C3=O)N1CCN(C)CC1 (stereo unspecified) | 1.4 | 1.68 | 0.17 | 8.08 | 0.83 | 8.2 | 0.17 | 20.5 °C | 9.2 °C | 13.2 °C | 17.5 | 1.7 °C | –
C[n+]1ccc(CN2C(=O)c3ccc4c5c(ccc(c35)C2=O)C(=O)N(Cc2cc[n+](C)cc2)C4=O)cc1 | 0.49 | 14.7 | 0.98 | 1.56 | 0.033 | 0.49 | 0.31 | 13 °C | 4.9 °C | 20.1 °C | 9 | 5 °C | –
C[n+]1cccc(N2C(=O)c3ccc4c5c(ccc(c35)C2=O)C(=O)N(c2ccc[n+](C)c2)C4=O)c1 | 18.2 | > 63.9 | 44.1 | > 63.9 | – | 0.41 | < 0.28 | 0.5 °C | 1.3 °C | -1.6 °C | 0.7 | 0 °C | –
O=C1c2ccc3c4c(ccc(c24)C(=O)N1c1ccc(N2CCOCC2)cc1)C(=O)N(c1ccc(N2CCOCC2)cc1)C3=O | 68.4 | 46.4 | 14 | 45.4 | 1.47 | 4.88 | 1.5 | – | – | – | – | – | –
